Results on one compound are retold here after PMC11357100 (2024).

What all share (assay): UV melting at 295 nm
In assay [1] the test system is c-KIT1 (DNA, G4) AGGGAGGGCGCTGGGAGGAGGG
The note with it: 10 mM KCl, 90 mM LiCl; 10 mM Tris-HCl pH 7.2; 2 µM DNA, 3 equiv. ligand; Tm 52.9 ± 1.0 to 54.40 ± 0.60.

Assay [2] relates to RET (DNA, G4) GGGGCGGGGCGGGGCGGGGT
To be noted: 10 mM KCl, 90 mM LiCl; 10 mM Tris-HCl pH 7.2; 2 µM DNA, 3 equiv. ligand; Tm 75.30 ± 0.80 to 76.4 ± 1.2.

Assay [3] has as its system c-MYC (DNA, G4) TGAGGGTGGGTAGGGTGGGTAA
To be noted: 10 mM KCl, 90 mM LiCl; 10 mM Tris-HCl pH 7.2; 2 µM DNA, 3 equiv. ligand; Tm 79.10 ± 0.10 to 80.6 ± 1.7.

The subject of assay [4] is catG4 (DNA, G4) TGGGTAGGGCGGGTTGGGAAA
To be noted: 10 mM KCl, 90 mM LiCl; 10 mM Tris-HCl pH 7.2; 2 µM DNA, 3 equiv. ligand; Tm 63.30 ± 0.10 to 62.80 ± 0.30.

Broadly, the ΔTm is the change in melting temperature against a reference sample. Consider `COc1nc2c(N)ncnc2[n+]2ccccc12`, for which the ΔTm is 1.5 °C in assay [1], 1.1 °C in assay [2], 1.5 °C in assay [3] and -0.5 °C in assay [4].
